Assay results published in publication PMC9763612, “Discovery of pyrrole derivatives as acetylcholinesterase-sparing butyrylcholinesterase inhibitor” (Frontiers in Pharmacology, 2022).
Like-named read-outs stand apart in the source and are kept apart here.

Assays:
[1] = target: T1, eqBChE (BChE from equine serum) (Equus caballus, UniProt P81908); test: biochemical
T1 construct: BChE (E.C. 3.1.1.8, from equine serum); purchased Sigma-Aldrich; host or cells: equine serum
Experimental: (§1) AChE (E.C. 3.1.1.7, Type V-S, lyophilized powder, from electric eel, 1000 unit), BChE (E.C. 3.1.1.8, from equine serum), ATCI, BTCI, and DTNB were purchased from Sigma-Aldrich. To the experimental group in a 96-well plate, 10 μl AChE or BChE (final concentration is 0.04 U/ml), 25 μl tested compounds, and 65 μl PBS buffer was sequentially added. For the control group, all components were in accordance with those in the experimental group, except that 25 μl tested compounds were replaced by equal volume of PBS. For the blank group, only 100 μl PBS was added. […] The calculation formula is: inhibition rate% = (ODcontrol-ODtest)/(ODcontrol-ODblank)*100.
3. Screen of the most appropriate incubation time for compounds and
In order to find the most appropriate incubation time for compounds and enzyme, to verify whether the incubation time of 25 min is appropriate, and to further improve […]
time, made the inhibition rate-incubation time curves (Figure S1), and calculated the IC50 values of these compounds under different incubation time (Table S1).

[2] = target: T2, eeAChE (AChE from electric eel) (Electrophorus electricus, UniProt O42275); test: biochemical; settings: incubation time 25 min; mean ± SD, at least three independent experiments
T2 construct: AChE (E.C. 3.1.1.7, Type V-S, lyophilized powder, from electric eel, 1000 unit); purchased Sigma-Aldrich Type V-S; host or cells: electric eel
Experimental: as §1

eqBChE = target: T3, eqBChE (Equus caballus, UniProt P81908); test: Inhibition kinetics of butyrylcholinesterase (reversibility, Lineweaver-Burk, Ki replot); assay type: biochemical
T3 construct: BChE (E.C. 3.1.1.8, from equine serum); purchased Sigma-Aldrich; host or cells: equine serum
Source text: According to the type of interaction between inhibitor and enzyme, there are three reaction types including the reversible, irreversible, and pseudo-irreversible reactions in the cholinesterase catalyzed reaction, and each type has its representative characteristics. By studying the reaction rate changes in enzymatic reactions in the presence of inhibitors, the mechanism of action of inhibitors on enzymes, viz the inhibition type could be determined, which is of great significance for further structural modification and the discovery of compounds with better enzyme inhibitory activity. To reveal the interaction between synthesized inhibitors and eq BChE, we initially chose compound 3p as an example and studied the reversibility of enzymatic reaction in the presence of inhibitor. When the final concentration of substrate BTCI was fixed at 0.2 mM, we deduced from Figure 2A that both compound 3p increased the enzymatic reaction rate to varying degrees with the increase of enzyme concentration. When both the concentrations of eq BChE and BTCI remained constant, the rate of the enzymatic reaction decreased with the increase of inhibitor concentration.
In the process of reversible inhibition reaction, inhibitors can be divided into competitive, non-competitive, mixed competitive, and anti-competitive inhibitors according to the effect of inhibitors and substrate on enzyme ([Liu et al., 2022]). […] For compound 3p, the Km values increased while the Vmax values decreased compared with those in the absence of inhibitors, which was not in accordance with the characteristics of competitive, non-competitive, and anti-competitive inhibitors. Therefore, non-competitive in combination with competitive inhibition and/or non-competitive in combination with anti-competitive inhibition maybe existed in the reaction systems of compound 3p with enzyme (Figure 2B). […] However, the binding affinity of compounds 3p with the free enzyme or the substrate-enzyme complex was different. […]

[3] = incubation time 25 min, mean ± SD, at least three independent experiments, read-out: IC50 eqBChE
[4] = incubation time 5 min, read-out: IC50 eqBChE under different incubation time
[5] = incubation time 10 min, read-out: IC50 eqBChE under different incubation time
[6] = incubation time 15 min, read-out: IC50 eqBChE under different incubation time
[7] = incubation time 45 min, read-out: IC50 eqBChE under different incubation time
[8] = incubation time 65 min, read-out: IC50 eqBChE under different incubation time
[9] = incubation time 85 min, read-out: IC50 eqBChE under different incubation time

T3 sequence (P81908 whole entry): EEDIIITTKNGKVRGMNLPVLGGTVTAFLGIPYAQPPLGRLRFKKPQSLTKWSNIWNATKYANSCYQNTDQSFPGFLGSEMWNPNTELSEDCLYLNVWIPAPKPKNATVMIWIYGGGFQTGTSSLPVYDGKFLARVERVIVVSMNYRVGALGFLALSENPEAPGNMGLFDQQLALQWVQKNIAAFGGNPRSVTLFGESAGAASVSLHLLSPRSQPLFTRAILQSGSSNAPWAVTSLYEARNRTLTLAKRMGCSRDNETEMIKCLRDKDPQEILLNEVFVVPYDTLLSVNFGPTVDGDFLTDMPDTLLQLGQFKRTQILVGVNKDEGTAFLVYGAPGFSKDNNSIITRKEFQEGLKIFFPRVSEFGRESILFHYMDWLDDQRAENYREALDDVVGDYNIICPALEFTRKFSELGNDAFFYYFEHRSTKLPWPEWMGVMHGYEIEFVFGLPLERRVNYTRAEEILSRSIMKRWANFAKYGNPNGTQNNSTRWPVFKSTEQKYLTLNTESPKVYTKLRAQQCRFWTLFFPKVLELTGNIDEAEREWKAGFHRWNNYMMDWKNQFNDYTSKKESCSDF
T1 sequence (P81908 whole entry): as above
T2 sequence (O42275 24-633): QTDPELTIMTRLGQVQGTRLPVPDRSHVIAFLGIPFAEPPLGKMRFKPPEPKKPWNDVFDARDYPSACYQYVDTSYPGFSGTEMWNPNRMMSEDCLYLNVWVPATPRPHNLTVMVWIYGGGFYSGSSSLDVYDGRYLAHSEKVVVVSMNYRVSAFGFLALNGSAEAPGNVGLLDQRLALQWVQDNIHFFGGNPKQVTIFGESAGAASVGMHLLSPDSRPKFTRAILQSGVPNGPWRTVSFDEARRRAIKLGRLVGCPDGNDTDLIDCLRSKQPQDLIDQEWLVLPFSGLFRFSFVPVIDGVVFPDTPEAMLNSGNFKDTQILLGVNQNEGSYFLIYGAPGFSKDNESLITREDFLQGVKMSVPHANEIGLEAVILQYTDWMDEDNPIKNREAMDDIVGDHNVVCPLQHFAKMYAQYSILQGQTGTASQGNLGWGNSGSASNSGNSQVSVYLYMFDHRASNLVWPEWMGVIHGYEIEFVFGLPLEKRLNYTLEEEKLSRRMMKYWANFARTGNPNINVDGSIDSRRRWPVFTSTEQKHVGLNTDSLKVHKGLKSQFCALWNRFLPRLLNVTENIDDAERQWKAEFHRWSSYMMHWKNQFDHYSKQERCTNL

Compound	IC50 [1, 3]	IC50 [2]	also measured
Cc1cccc(-n2cccc2)c1 [Compound 3c]	> 50 µM	> 50 µM	–
c1ccc(-c2ccn(-c3ccccc3)c2)cc1 [Compound 3n]	> 50 µM	> 50 µM	–
Clc1ccccc1-c1ccn(-c2ccccc2)c1 [Compound 3p]	1.71 ± 0.087 µM	> 50 µM	IC50 [1, 4]: 0.6 ± 0.1 µM; IC50 [1, 5]: 0.48 ± 0.24 µM; IC50 [1, 6]: 1.95 ± 0.13 µM; IC50 [1, 7]: 2.4 ± 0.11 µM; IC50 [1, 8]: 3.27 ± 0.49 µM; IC50 [1, 9]: 3.2 ± 0.092 µM; Inhibition mode (eqBChE; Lineweaver-Burk plots): mixed competitive inhibition; Reversibility of inhibition (eqBChE; rate vs. enzyme concentration, BTCI 0.2 mM): reversible; Ki (eqBChE; replot of Lineweaver-Burk slopes vs. inhibitor concentration): 0.281 µM
c1ccc2nc(-n3cccc3)cnc2c1 [Compound 3l]	> 50 µM	> 50 µM	–
COc1ccccc1-c1ccn(-c2ccccc2)c1 [Compound 3o]	5.37 ± 0.36 µM	> 50 µM	IC50 [1, 4]: 4.8 ± 0.38 µM; IC50 [1, 5]: 5.06 ± 1.2 µM; IC50 [1, 6]: 6.87 ± 0.6 µM; IC50 [1, 7]: 6.67 ± 0.61 µM; IC50 [1, 8]: 6.83 ± 0.24 µM; IC50 [1, 9]: 7.63 ± 0.77 µM
c1ccc(-n2cccc2)nc1 [Compound 3j]	> 50 µM	> 50 µM	–
c1ccc(Cc2ccn(-c3ccccc3)c2)cc1 [Compound 3m]	> 50 µM	> 50 µM	–
Brc1ccc(-n2cccc2)cc1 [Compound 3g]	> 50 µM	> 50 µM	–
Brc1cccc(-n2cccc2)c1 [Compound 3d]	> 50 µM	> 50 µM	–
Clc1ccccc1-n1cccc1 [Compound 3b]	> 50 µM	> 50 µM	–
c1ccc(-c2ccc(-c3ccn(-c4ccccc4)c3)cc2)cc1 [Compound 3s]	3.76 ± 0.25 µM	> 50 µM	IC50 [1, 4]: 5.87 ± 0.23 µM; IC50 [1, 5]: 5.95 ± 0.3 µM; IC50 [1, 6]: 6.05 ± 0.65 µM; IC50 [1, 7]: 4.41 ± 0.15 µM; IC50 [1, 8]: 4.21 ± 0.075 µM; IC50 [1, 9]: 4.38 ± 0.18 µM
CC(C)c1ccc(-n2cccc2)cc1 [Compound 3e]	> 50 µM	> 50 µM	–
FC(F)(F)c1cccc(-c2ccn(-c3ccccc3)c2)c1 [Compound 3r]	> 50 µM	> 50 µM	–
Cc1ccccc1-n1cccc1 [Compound 3a]	> 50 µM	> 50 µM	–
Cc1cccc(C)c1-n1cccc1 [Compound 3i]	> 50 µM	> 50 µM	–
COc1cccc(-c2ccn(-c3ccccc3)c2)c1 [Compound 3q]	> 50 µM	> 50 µM	–
CSc1ccc(-n2cccc2)cc1 [Compound 3f]	> 50 µM	> 50 µM	–
Cc1cc(-n2cccc2)no1 [Compound 3k]	> 50 µM	> 50 µM	–
COC(=O)c1ccc(-n2cccc2)cc1 [Compound 3h]	> 50 µM	> 50 µM	–
